{
  "source": "patent US10278949B2",
  "about": "“Method for obtaining an extract rich in ellagic acid tannins from fruits that contain these compounds, and resulting extract” (UNIVERSIDAD DE COSTA RICA, priority 2011, dated 2019)",
  "format_in_all_cases": "physicochemical",
  "conditions_in_all_cases": "mean ± DE of three replicate experiments",
  "key": {"[1]": {"assay": "Antioxidant capacity (ORAC)", "description": "(§1) We confirmed the removal activity of the polyphenol rich extract from microfiltered blackberry juice using different methods (Chart 11), and this activity was compared with the flavonoid remover of quercetin radicals."}, "[2]": {"assay": "DPPH radical removal", "description": "as §1"}, "[3]": {"assay": "NO removal assay", "method": "as §1\nFour hours of pretreatment with the blackberry extract reduced NO production in a dose dependent manner only when the LPS+IFNγ was incubated with the extract (no wash). If the extract is removed before the addition of LPS+IFNγ (with rinsing), inhibition of NO production was seen only in the highest concentration tested."}},
  "note": "Marks after values point to notes of the source that are not given here.",
  "data": [
    {"smiles": "O=c1c(O)c(-c2ccc(O)c(O)c2)oc2cc(O)cc(O)c12", "note": "[Quercetin]", "values": [
      {"measurement": "ORAC", "setting": "[1]", "result": "2067 ± 81^b μM TE/g"},
      {"measurement": "DPPH IC50", "setting": "[2]", "result": "2.17 ± 0.08^b μg/mL"},
      {"measurement": "No Removal IC50", "setting": "[3]", "result": "6.57 ± 0.8^b μg/mL"}
    ]}
  ]
}
